Reference: patent publication US20250073234A1, “COMBINATION THERAPIES INCLUDING PARP1 INHIBITORS” (Cornell University, priority 2022, published 2025)

Tests used:
[1] = system: c-FOS and c-JUN at the AP-1A site of the SQSTM1 promoter; experiment: ChIP-PCR of SQSTM1 promoter (AP-1A) occupancy in WPMY-1 cells; type: cell-based, human; conditions: 48 h
Protocol: WPMY-1 cells were fixed by adding directly to the culture medium formaldehyde (HCHO; from a 37% HCHO-10% methanol stock, Calbiochem) to a final concentration of 1%. […] Chromatin was sheared in a COVARIS S220 Focused-ultrasonicator to yield DNA fragment sizes of 200-1000 base pairs, and diluted 10 times in dilution buffer (20 mM Tris pH 8.0, 2 mM EDTA, 1% triton X-100, 150 mM NaCl and protease inhibitors). Immunoprecipitations were carried out overnight at 4° C. using the following protein A-antibodies complexes: cFOS, FOSB, cJUN, JUNB.
Immunocomplexes were washed three times with buffer TSEI (20 mM Tris pH 8.0, 2 mM EDTA, 1% triton X-100, 150 mM NaCl, 0.1% SDS and protease inhibitors), three washes with buffer TSEII (20 mM Tris pH 8.0, 2 mM EDTA, 1% triton X-100, 500 mM NaCl, 0.1% SDS and protease inhibitors), one wash with buffer TSEIII (10 mM Tris pH 8.0, 250 mM LiCl, 1 mM EDTA, 1% NP40, 1% Deoxycholate and protease inhibitors) and one wash with TE pH 8.0.
Immunocomplexes were extracted in TE containing 1% SDS, and protein-DNA cross-links were reverted by heating at 65° C. overnight. DNA was extracted by using a PCR purification kit (Qiagen). One-tenth of the immunoprecipitated DNA was used in each PCR, for which the promoter-specific primers were used.

[2] = system: p62 in prostate, lung, breast and endometrial primary fibroblasts; experiment: p62 immunoblot in primary fibroblasts of different tissue origins; type: cell-based; conditions: Olaparib 20 μM, 4 days
Protocol: Cells for protein analysis were lysed in RIPA buffer (20 mM Tris-HCl, […], 2 mM EDTA, 1% Triton-X, 10% glycerol, 0.1% SDS, and 0.5% sodium deoxycholate) with phosphatase and protease inhibitors. For immunoprecipitations, cells were lysed in IP lysis buffer (100 mM NaCl, 25 mM Tris, 1% Triton-X, 10% glycerol, with phosphatase and protease inhibitors) and immunoprecipitated with 25 μl of 50% slurry of protein […] beads (Bioworld). Immunoprecipitates were washed three times with lysis buffer, once with high salt (500 mM NaCl), and once more with lysis buffer. Protein concentration in lysates was determined by using Protein Assay Kit (Bio-Rad). Cell extracts and immunoprecipitated proteins were denatured, subjected to SDS-PAGE, transferred to PVDF membranes (GE Healthcare). After blocking with 5% nonfat dry milk in Tris-buffered saline and 0.1% Tween (TBS-T), the membranes were incubated with the specific antibodies (as listed in Key Resources Table) overnight at 4° C. After 2 hours incubation with the appropriate horseradish peroxidase-conjugated antibodies, the immune complexes were detected by chemiluminescence (Thermo Scientific) or Near-infrared fluorescence (LI-COR).

[3] = system: PC3 cells; experiment: Trans-well migration and invasion of PC3 cells co-cultured with pre-treated WPMY-1 cells; type: cell-based, human; conditions: co-culture with Olaparib-pretreated WPMY-1, 20 h, basal and ADT
Protocol: For co-culture migration and invasion assays, 8×10^4 WPMY-1 cells were plated onto the lower chamber of a 24 well plate in DMEN containing 10% FBS (basal conditions) or 10% charcoal stripped FBS (ADT conditions) and vehicle (DMSO) or Olaparib 10 μM or Olaparib 10 μM+PEGPH20 2.5 μg/ml for 48 hours. 5×10^4 PC3 were seeded in a transwell chamber (Corning Biocoat control inserts) or in a transwell invasion chamber (Corning BioCoat Matrigel Invasion Chambers), both with 8 μm membrane. PC3 were allowed to migrate or invade for 20 hours at 37° C., 5% CO2. Cells were fixed in cold methanol and stained with crystal violet.

| Structure (SMILES) | recruitment of c-FOS and c-JUN to the AP-1 regulatory site in lactate-treated cells ([1]; added to lactate-treated WPMY-1 cells) | recruitment of c-FOS and c-JUN to the AP-1A binding site in the SQSTM1 promoter ([1]; Olaparib 20 μM) | p62 expression [2] | migration and invasion of PC3 cells [3] |
| --- | --- | --- | --- | --- |
| NC(=O)c1ccc[n+]([C@@H]2O[C@H](COP(=O)([O-])OP(=O)(O)OC[C@H]3O[C@@H](n4cnc5c(N)ncnc54)[C@H](O)[C@@H]3O)[C@@H](O)[C@H]2O)c1 [NAD^+] | rescued | – | – | – |
| O=C(c1cc(Cc2n[nH]c(=O)c3ccccc23)ccc1F)N1CCN(C(=O)C2CC2)CC1 [Olaparib] | – | impaired the recruitment of c-FOS and c-JUN | downregulated p62 expression | increased migration and invasion of PCa cells |
